Laboratory results: patent publication US11939314B2, “Quinolin-2-one derivatives” (MERCK PATENT GMBH, priority 2016, dated 2024)
Where a name gives a salt, the structure may show the parent alone.

How the values were obtained:
PDGFRalpha(V561D) = molecular target: T1, PDGFRalpha(V561D) (Homo sapiens, UniProt P16234, V561D); assay: PDGFRalpha(V561D) assay; format: biochemical; conditions: recombinant human PDGFRalpha aa 550-end, 200 μM ATP, 1.4E-06 means 1.4×10^−6, read-out: Inhibition (IC50) of PDGFRα (V561D)
T1 construct: recombinant human PDGFRalpha, amino acids 550end containing the V561 D mutation; 6His (N)
T1 sequence (P16234 550-1089 V561D): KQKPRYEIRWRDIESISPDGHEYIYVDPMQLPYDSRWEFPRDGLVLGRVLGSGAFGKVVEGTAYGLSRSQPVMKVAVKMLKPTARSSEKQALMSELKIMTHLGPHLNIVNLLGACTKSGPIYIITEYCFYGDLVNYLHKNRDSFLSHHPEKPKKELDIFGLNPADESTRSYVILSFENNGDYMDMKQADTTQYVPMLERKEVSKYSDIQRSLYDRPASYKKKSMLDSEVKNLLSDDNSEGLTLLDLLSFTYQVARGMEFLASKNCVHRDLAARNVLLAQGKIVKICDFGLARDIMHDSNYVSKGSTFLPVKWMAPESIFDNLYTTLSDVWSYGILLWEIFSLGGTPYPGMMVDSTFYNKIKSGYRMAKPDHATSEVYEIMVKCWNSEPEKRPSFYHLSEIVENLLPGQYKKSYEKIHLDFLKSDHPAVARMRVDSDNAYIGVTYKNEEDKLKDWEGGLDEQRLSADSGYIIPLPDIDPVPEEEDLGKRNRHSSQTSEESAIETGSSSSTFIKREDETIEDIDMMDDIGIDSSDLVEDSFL
Summary of the method: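 Radiometric filter-binding assay: substrate phosphorylation by recombinant N-His-tagged human PDGFRα 550-end V561D was quenched with 3% phosphoric acid after 40 min at room temperature, then counted.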

c-Kit(V654A) = molecular target: T2, c-Kit(V654A) (Homo sapiens, UniProt P10721, V654A); assay: c-Kit(V654A) assay; format: biochemical; conditions: recombinant human c-Kit aa 544-end, 200 μM ATP, 1.4E-06 means 1.4×10^−6, read-out: Inhibition (IC50) of c-KIT (V654A)
T2 construct: amino acids 544-end containing the V654A mutation; GST (N)
T2 sequence (P10721 544-976 V654A): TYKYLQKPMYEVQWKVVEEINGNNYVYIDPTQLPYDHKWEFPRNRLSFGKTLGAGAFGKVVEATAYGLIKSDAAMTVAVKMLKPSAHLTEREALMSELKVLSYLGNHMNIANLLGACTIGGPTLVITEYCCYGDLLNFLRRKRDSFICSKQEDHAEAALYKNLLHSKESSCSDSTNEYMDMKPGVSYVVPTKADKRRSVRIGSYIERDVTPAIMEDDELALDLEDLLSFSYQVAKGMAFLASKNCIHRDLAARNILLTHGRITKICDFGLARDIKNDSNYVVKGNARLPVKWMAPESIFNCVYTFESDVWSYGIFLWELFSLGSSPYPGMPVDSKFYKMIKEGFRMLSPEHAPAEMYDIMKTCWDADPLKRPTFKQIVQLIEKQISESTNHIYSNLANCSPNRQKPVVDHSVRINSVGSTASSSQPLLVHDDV
Summary of the method: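 Radiometric filter-binding read-out: substrate 33P incorporation counted by scintillation after P30 filtermat washes in 75 mM phosphoric acid and methanol. Enzyme: N-GST recombinant human c-Kit aa 544-end carrying V654A.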

| Compound | IC50 (PDGFRalpha(V561D)) | IC50 (c-Kit(V654A)) |
| --- | --- | --- |
| CCN(CC)CCOC1CCN(C(=O)c2ccc(-n3cc(-c4cc5cc(F)ccc5[nH]c4=O)nn3)cc2)C1 (stereo not drawn) [A203, 3-(1-{4-[3-(2-diethylamino-ethoxy)-pyrrolidine-1-carbonyl]-phenyl}-1H-[1,2,3]triazol-4-yl)-6-fluoro-1H-quinolin-2-one] | 490 nM | 36 nM |
| NC(=O)[C@@H]1CCCN1C(=O)c1ccc(-n2cc(-c3cc4cc(F)ccc4[nH]c3=O)nn2)cc1 [A242, (S)-1-{4-[4-(6-fluoro-2-oxo-1,2-dihydro-quinolin-3-yl)-[1,2,3]triazol-1-yl]-benzoyl}-pyrrolidine-2-carboxylic acid amide] | 17 nM | 11 nM |
| O=c1[nH]c2cc(F)c(F)cc2cc1-c1cn(-c2ccc(OCCC3CCNCC3)cc2)nn1 [A134, 6,7-difluoro-3-{1-[4-(2-piperidin-4-yl-ethoxy)-phenyl]-1H-[1,2,3]triazol-4-yl}-1H-quinolin-2-one] | 16 nM | 17 nM |
| CN1CC[C@H](Oc2ccc(-n3cc(-c4cc5cc(F)ccc5[nH]c4=O)nn3)cc2)C1 [A370, 6-fluoro-3-{1-[4-((S)-1-methyl-pyrrolidin-3-yloxy)-phenyl]-1H-[1,2,3]triazol-4-yl}-1H-quinolin-2-one] | 58 nM | 31 nM |
| COCC1CCN(C(=O)c2ccc(-n3cc(-c4cc5cc(F)ccc5[nH]c4=O)nn3)cc2)C1 (stereo not drawn) [A106, 6-fluoro-3-{1-[4-(3-methoxymethyl-pyrrolidine-1-carbonyl)-phenyl]-1H-[1,2,3]triazol-4-yl}-1H-quinolin-2-one] | 0.9 nM | 9.1 nM |
| CN1CCN(C(=O)c2ccc(-n3cc(-c4cc5c(F)c(F)ccc5[nH]c4=O)nn3)cc2)CC1 [A156, 5,6-difluoro-3-{1-[4-(4-methyl-piperazine-1-carbonyl)-phenyl]-1H-[1,2,3]triazol-4-yl}-1H-quinolin-2-one] | 40 nM | 26 nM |
| O=C(c1ccc(-n2cc(-c3cc4cc(F)cnc4[nH]c3=O)nn2)cc1)N1CCNCC1 [A122, 6-fluoro-3-{1-[4-(piperazine-1-carbonyl)-phenyl]-1H-[1,2,3]triazol-4-yl}-1H-[1,8]naphthyridin-2-one] | 5 nM | 73 nM |
| CC(=O)O[C@@H]1CCN(C(=O)c2ccc(-n3cc(-c4cc5cc(F)ccc5[nH]c4=O)nn3)cc2)C1 [A179, acetic acid (R)-1-{4-[4-(6-fluoro-2-oxo-1,2-dihydro-quinolin-3-yl)-[1,2,3]triazol-1-yl]-benzoyl}-pyrrolidin-3-yl ester] | 1.6 nM | 14 nM |
| COC1CCN(C(=O)c2ccc(-n3cc(-c4cc5cc(F)c(F)cc5[nH]c4=O)nn3)cc2)CC1 [A191, 6,7-difluoro-3-{1-[4-(4-methoxy-piperidine-1-carbonyl)-phenyl]-1H-[1,2,3]triazol-4-yl}-1H-quinolin-2-one] | 240 nM | 15 nM |
| O=C(COc1ccc(-n2cc(-c3cc4cc(F)ccc4[nH]c3=O)nn2)cc1)N1CCNCC1 [A141, 6-fluoro-3-{1-[4-(2-oxo-2-piperazin-1-yl-ethoxy)-phenyl]-1H-[1,2,3]triazol-4-yl}-1H-quinolin-2-one] | 2.8 nM | 3.8 nM |
| Cc1cc(C(=O)N2CCOCC2)ccc1-n1cc(-c2cc3ccccc3[nH]c2=O)nn1 [A35, 3-{1-[2-methyl-4-(morpholine-4-carbonyl)-phenyl]-1H-[1,2,3]triazol-4-yl}-1H-quinolin-2-one] | 49 nM | 650 nM |
| O=C(c1ccc(-n2cc(-c3cc4cc(F)c(F)cc4[nH]c3=O)nn2)cc1)N1CCC(OCCN2CCCC2)C1 (stereo not drawn) [A225, 6,7-difluoro-3-(1-{4-[3-(2-pyrrolidin-1-yl-ethoxy)-pyrrolidine-1-carbonyl]-phenyl}-1H-[1,2,3]triazol-4-yl)-1H-quinolin-2-one] | 580 nM | 190 nM |
| O=C(c1ccc(-n2cc(-c3cc4ccc(Br)cc4[nH]c3=O)nn2)cc1)N1CCOCC1 [A91, 7-bromo-3-{1-[4-(morpholine-4-carbonyl)-phenyl]-1H-[1,2,3]triazol-4-yl}-1H-quinolin-2-one] | 8.2 nM | 19 nM |
| O=C(c1ccc(-n2cc(-c3cc4cc(F)ccc4[nH]c3=O)nn2)cc1)N1C[C@H]2CNC[C@H]2C1 [A308, 6-fluoro-3-{1-[4-((cis)-hexahydro-pyrrolo[3,4-c]pyrrole-2-carbonyl)-phenyl]-1H-[1,2,3]triazol-4-yl}-1H-quinolin-2-one] | 97.4 nM | 10 nM |
| O=C(c1ccc(-n2cc(-c3cc4cccc(F)c4[nH]c3=O)nn2)cc1)N1CCNCC1 [A120, 8-fluoro-3-{1-[4-(piperazine-1-carbonyl)-phenyl]-1H-[1,2,3]triazol-4-yl}-1H-quinolin-2-one] | 230 nM | 280 nM |
| Cc1cc(-n2cc(-c3cc4ccccc4[nH]c3=O)nn2)ccc1C(=O)N1CCOCC1 [A40, 3-{1-[3-methyl-4-(morpholine-4-carbonyl)-phenyl]-1H-[1,2,3]triazol-4-yl}-1H-quinolin-2-one] | 7 nM | 26 nM |
| O=C(c1ccc(-n2cc(-c3cc4cc(F)ccc4[nH]c3=O)nn2)cc1)N1CCNC[C@@H]1CO [A316, 6-fluoro-3-{1-[4-((R)-2-hydroxymethyl-piperazine-1-carbonyl)-phenyl]-1H-[1,2,3]triazol-4-yl}-1H-quinolin-2-one] | 520 nM | 120 nM |
| CO[C@H]1CC[C@@H](Oc2ccc(-n3cc(-c4cc5cc(F)ccc5[nH]c4=O)nn3)cc2)C1 (stereo in doubt) [A355, 6-Fluoro-3-{1-[4-((trans)-3-methoxy-cyclopentyloxy)-phenyl]-1H-[1,2,3]triazol-4-yl}-1H-quinolin-2-one] | 1600 nM | 89 nM |
| CCN(CC)[C@@H]1CCCN(C(=O)c2ccc(-n3cc(-c4cc5cc(F)ccc5[nH]c4=O)nn3)cc2)C1 [A338, 3-{1-[4-((R)-3-diethylamino-piperidine-1-carbonyl)-phenyl]-1H-[1,2,3]triazol-4-yl}-6-fluoro-1H-quinolin-2-one] | 160 nM | 39 nM |
| CN(C)C[C@@H]1CCCN1C(=O)c1ccc(-n2cc(-c3cc4cc(F)c(F)cc4[nH]c3=O)nn2)cc1 [A323, 3-{1-[4-((S)-2-dimethylaminomethyl-pyrrolidine-1-carbonyl)-phenyl]-1H-[1,2,3]triazol-4-yl}-6,7-difluoro-1H-quinolin-2-one] | 220 nM | 220 nM |
| O=C(c1ccc(-n2cc(-c3cc4c(F)cccc4[nH]c3=O)nn2)cc1)N1CCNCC1 [A119, 5-fluoro-3-{1-[4-(piperazine-1-carbonyl)-phenyl]-1H-[1,2,3]triazol-4-yl}-1H-quinolin-2-one] | 46 nM | 9 nM |
| O=c1[nH]c2ncccc2cc1-c1cnn(-c2ccccc2)c1 [A43, 3-(1-phenyl-1H-pyrazol-4-yl)-1H-[1,8]naphthyridin-2-one] | 170 nM | 140 nM |
| NC(=O)[C@H]1CCN(C(=O)c2ccc(-n3cc(-c4cc5cc(F)ccc5[nH]c4=O)nn3)cc2)C1 [A243, (S)-1-{4-[4-(6-fluoro-2-oxo-1,2-dihydro-quinolin-3-yl)-[1,2,3]triazol-1-yl]-benzoyl}-pyrrolidine-3-carboxylic acid amide] | 14 nM | 30 nM |
| CN(C)[C@H]1CCCN(C(=O)c2ccc(-n3cc(-c4cc5cc(F)ccc5[nH]c4=O)nn3)cc2)C1 [A332, 3-{1-[4-((S)-3-dimethylamino-piperidine-1-carbonyl)-phenyl]-1H-[1,2,3]triazol-4-yl}-6-fluoro-1H-quinolin-2-one] | 100 nM | 71 nM |
| Cc1ccc2cc(-c3cn(-c4ccc(C(=O)N5CCN(C)CC5)cc4)nn3)c(=O)[nH]c2n1 [A65, 7-methyl-3-{1-[4-(4-methyl-piperazine-1-carbonyl)-phenyl]-1H-[1,2,3]triazol-4-yl}-1H-[1,8]naphthyridin-2-one] | 150 nM | 1200 nM |
| O=C(c1ccc(-n2cc(-c3cc4cc(Cl)ccc4[nH]c3=O)nn2)cc1)N1CCCCC1CO (stereo not drawn) [A255, 6-chloro-3-{1-[4-(2-hydroxymethyl-piperidine-1-carbonyl)-phenyl]-1H-[1,2,3]triazol-4-yl}-1H-quinolin-2-one] | 2.6 nM | 22 nM |
| N[C@@H]1CCN(C(=O)c2ccc(-n3cc(-c4cc5cc(F)ccc5[nH]c4=O)nn3)cc2)C1 [A313, 3-{1-[4-((R)-3-amino-pyrrolidine-1-carbonyl)-phenyl]-1H-[1,2,3]triazol-4-yl}-6-fluoro-1H-quinolin-2-one hydrochloride] | 330 nM | 26 nM |
| CN[C@H]1CCN(C(=O)c2ccc(-n3cc(-c4cc5cc(F)ccc5[nH]c4=O)nn3)cc2)C1 [A312, 6-fluoro-3-{1-[4-((S)-3-methylamino-pyrrolidine-1-carbonyl)-phenyl]-1H-[1,2,3]triazol-4-yl}-1H-quinolin-2-one hydrochloride] | 290 nM | 61 nM |
| O=C1COCCN1c1ccc(-n2cc(-c3cc4ccccc4[nH]c3=O)nn2)cn1 [A34, 3-{1-[6-(3-oxo-morpholin-4-yl)-pyridin-3-yl]-1H-[1,2,3]triazol-4-yl}-1H-quinolin-2-one] | 110 nM | 5800 nM |
| O=C(c1ccc(-n2cc(-c3cc4cc(F)ccc4[nH]c3=O)nn2)cc1)N1CCCC2(COC2)C1 [A228, 6-fluoro-3-{1-[4-(2-oxa-6-aza-spiro[3.5]nonane-6-carbonyl)-phenyl]-1H-[1,2,3]triazol-4-yl}-1H-quinolin-2-one] | 300 nM | 74 nM |
